Experimental findings from patent EP0958822A1, “THE OCULAR HYPOTENSIVE ACTIVE COMPOSITIONS” (Lin, Tongho, priority 1996, dated 1998) are described below.

The test deals with New Zealand albino rabbits. Description: IOP recovery after hypertonic saline infusion (ocular hypertensive rabbit model). It counts as in vivo. The settings on record: 50 µl instilled in eye. As for the experimental part:
1981, vol 13 pp72-79. New Zealand albino rabbits of either sex were used in the study. A 20 % hypertonic saline solution was infused at the speed of 1 ml […] for 10 minutes through the marginal ear vein with an infusion pump. […] Then the IOP of both eyes were measured with a Tono-Pen XL Tonometer (Mentor, Norwell , MA) at 30 minute and 10 minute intervals before the experiment. At the time of commencement, as well as at 10, 20, 40, 60, and 80 min intervals measurements were taken. Then measurements were repeated at every 30 minute intervals. […] The IOP recovery curve acquired had shifted to the right and below the curve of the controlled group.

As for `CCN1CCCC1CNC(=O)c1cc(S(N)(=O)=O)ccc1OC` (centres unmarked) [Sulpiride], the IOP recovery time entry (0.5% drop solution, 20 % hypertonic saline infusion) is on record as “didn't show a significant ability in decreasing IOP”. In addition, the “decreasing IOP” value (20% drop solution) is reported as “it did so when the concentration was raised to 20%”.
